Assay results as given in patent US6413934B1, “Streptavidin mutants having secondary functional domains” (University of Washington, priority 1998, dated 2002).
Where a chain is given by its changes, count along the chain named. Read-outs that look alike come from different tables or passages of the source. Values belong to the molecule of their own block, whether it stands above or below them.

Columns and labels:
[1] = target: integrin receptors (on rat aortic endothelial cells); assay: cell-based or functional assay
[2] = system: Rat aortic endothelial cells; assay: peptide inhibition of endothelial cell adhesion to FN-SA and OSTP-SA; assay type: cell-based; settings: for inhibitory effect on cell adhesion: soluble peptide preincubated with cells 15 minutes
Protocol: To confirm that the observed cell adhesion was directly RGD dependent, inhibition studies were conducted with GRGDSP (amino acids 89 to 94 of SEQ ID NO:2), GRGESP (SEQ ID NO:8), and GRADSP (SEQ ID NO:9) peptides.
Synthetic hexapeptides GRGDSP (amino acids 89 to 94 of SEQ ID NO:2), GRGESP (SEQ ID NO:8), and GRADSP (SEQ ID NO:9) were purchased from Gibco BRL. The inhibition assay was performed with the same protocol as for the cell adhesion assay except that the cells were incubated with the peptides for 15 minutes at room temperature prior to being plated onto the protein-coated wells.

[3] = system: αvβ3 integrin present on the melanoma cells; assay: peptide and antibody inhibition of melanoma cell adhesion to RGD streptavidin mutants; assay type: cell-based; settings: human melanoma cells; antibodies at 10 μg/ml
Protocol: Melanoma cell adhesion assays on streptavidin coated polystyrene dishes were performed as described above for endothelial cell adhesion assays, except that DMEM with 0.1% BSA and 10 mM HEPES was used as culture medium and 2×10^5 cells were added to each well. Moαv cells that express high levels of αvβ3 integrin were derived from M21 melanoma cells. Adhesion assays were performed on self assembled monolayers constructed on 24 well tissue culture polystyrene dishes. The dishes were evaporated with about 400A gold, then incubated with a 0.1 mM ethanolic thiol solution of 20% biotinylated alkylthiol (BAT) and 80% polyethylene glycol (PEG) overnight. The wells were rinsed three times with 100% ethanol, blown dry with nitrogen, then incubated with 0.05 mg/ml of streptavidin in PBS (wild type or mutant) at 37° C. for one hour with side to side rocking. The protein solution was then removed, and the wells were rinsed three times with PBS before addition of cells. Antibody inhibition assays were performed essentially identically as for the RGD/RGE inhibition assays. LM609 and control were obtained from Chemicon International, Inc. (Calif.) and were used at 1:1000 dilution (10 μg/ml).

[4] = system: Rat aortic endothelial cells; assay: endothelial cell adhesion assay on streptavidin-coated wells; assay type: cell-based
Protocol: Rat aortic endothelial cells were cultured in MDCB 131 media (Gibco BRL) with fetal bovine serum and used in the cell adhesion assays. Wild type and RGD streptavidin mutants were incubated in 96 well polystyrene plates overnight at 4° C. at various concentrations and then blocked with 1% BSA in PBS for 1 hour at 37° C. prior to the plating of cells (n=3). Alternatively, biotinylated BSA was incubated in the 96 wells overnight at 4° C., blocked with 1% BSA in PBS for one hour at 37° C., and then streptavidin (wild type or RGD) was incubated in the wells for one hour at 37° C. The protein solution was aspirated and the wells rinsed with sterile PBS before 50,000 cells were plated onto the protein coated wells for one hour at 37° C. The media was removed and the wells were rinsed twice with warm PBS (37° C.). The adherent cells were fixed with 4% paraformaldehyde (PFA) for 5 minutes and stained with 0.5% toluidine blue in 4% PFA for another 5 minutes at room temperature before the wells were rinsed by immersing the plate into a large bowl of tap water. The plate was dried by blotting the inverted plate onto paper towels and the remaining dye in the wells was solubilized with 1% SDS prior to reading the absorbance of the wells with a plate reader at 595 nm.

[5] = off-rate measurement with tritiated biotin; assay type: binding; settings: 25° C., PBS pH 7.0
Protocol: Since the mutations occur in a loop opposite from the biotin binding pocket, the rational design of the molecule should obviate any effect of reducing the off-rate, or dissociation constant of streptavidin. This indeed was observed by experimental koff values for the RGD mutants that are within the standard deviation of previously calculated values for wild type streptavidin. Off-rate measurements were performed at 25° C. to quantitatively characterize the biotin affinity of the mutants and compare the results of the binding affinity of wild type streptavidin. Tritiated biotin, “hot” because it is radioactively labeled, was added to samples of the mutant proteins in a PBS solution, pH 7.0, and allowed to equilibrate for 1 to 2 hours. The off-rate reaction was then initiated by the addition of 5 μL of 15 mM “cold” biotin (non-radioactive) in PBS. As the tritiated biotin dissociated from the streptavidin mutants, aliquots were taken at fixed times and scintillation counts were performed to analyze the beta emission of the tritiated biotin. The natural logarithm of the bound tritiated fractions was plotted versus time to attain the off-rate koff, which is calculated from a linear regression of the data points.

absorbance at 595 nm (adhered rat aortic endothelial cells) (absorbance at 595 nm) [1]: 0.3 | coating concentration at saturation of cell adhesion [1]: 100 nM
Molecule: Fibronectin Streptavidin (streptavidin having incorporated therein RGD with flanking amino acids as in fibronectin) (designed binder)

Molecule: GRADSP
inhibitory effect on cell adhesion [2]: no noticeable inhibitory effect

Molecule: GRGDSP [RGD peptide]
inhibitory effect on cell adhesion at 100 μm peptide ([2]; 100 μM peptide): inhibited cell adhesion | inhibitory effect on cell adhesion [2]: inhibited cell adhesion in a dose-dependent manner | inhibition of cell adhesive activity of the RGD mutants [3]: can be inhibited

Molecule: GRGESP
inhibitory effect on cell adhesion [2]: no noticeable inhibitory effect

absorbance at 595 nm (adhered rat aortic endothelial cells) (absorbance at 595 nm) [1]: 0.3 | coating concentration at saturation of cell adhesion [1]: 100 nM
Molecule: Osteopontin Streptavidin (streptavidin having incorporated therein RGD with flanking amino acids as in osteopontin) (designed binder)

Molecule: Wild type streptavidin: naturally occurring tetrameric biotin-binding protein of Streptomyces avidinii, SEQ ID NO:1
cell adhesion (absorbance at 595 nm, visual inspection) [4]: does not display any cell adhesion above control levels | cell adhesion (absorbance at 595 nm, visual inspection) ([4]; listed as wild type): comparable to those for 1% SDS | koff [5]: 3.3±0.1×10^−6 /sec

B1: FN-SA: streptavidin mutant incorporating the RGD sequence and flanking residues from fibronectin, SEQ ID NO:2 (protein)
chain: MRKIVVAAIAVSLTTVSITASASADPSKDSKAQVSAAEAGITGTWYNQLGSTFIVTAGADGALTGTYESAVGNAESRYVLTGRYDSAPGRGDSPGSGTALGWTVAWKNNYRNAHSATTWSGQYVGGAEARINTQWLLTSGTTEANAWKSTLVEHDTFTKVKPSAASIDAAKKAGVNNGNPLDAVQQ
koff [5]: 3.28e-06 s⁻¹

B2: OSTP-SA: streptavidin mutant incorporating the RGD sequence and flanking residues from osteopontin, SEQ ID NO:3 (protein)
chain: B1 chain with P94V
koff [5]: 3.13e-06 s⁻¹
